Laboratory results: PubChem BioAssay AID743307 (Sanford-Burnham Center for Chemical Genomics, 2014)

Biological target: Low molecular weight phosphotyrosine protein phosphatase (Homo sapiens) (UniProt P24666)
Experiment: LMPTP phosphatase inhibitors, dose response, biochemical, OMFP substrate, fluorescence intensity, set 2 (AID 743307)
Settings: LMPTP-A enzyme, OMFP fluorogenic substrate

Sequence of Low molecular weight phosphotyrosine protein phosphatase (Homo sapiens) (P24666 whole entry, looked up): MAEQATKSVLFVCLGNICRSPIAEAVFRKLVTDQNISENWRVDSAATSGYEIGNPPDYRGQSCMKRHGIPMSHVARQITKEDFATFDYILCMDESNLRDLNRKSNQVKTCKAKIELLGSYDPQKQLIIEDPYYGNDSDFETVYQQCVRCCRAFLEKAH

**Q.** Which IC50 does the source give for `COc1ccc(-c2cc(NCCCN3CCCCC3)c3ccccc3n2)cc1` here?
**A.** 1.68 µM
